Assay results taken from patent US20250325684A1, “POTENT ANTI-CANCER CYCLOTIDES” (University of Southern California, priority 2022, published 2025).
“Also recorded” adds a separate entry of the source. Numbered stars: 1 amine (or outer) side, 2 acyl side, 3 side chain; on linkers, the order of the positions; unused ones are H or OH. Bridge positions count the residues as written; N and C are the ends. Square brackets hold non-standard residues; d marks the D form. Peptide text beside a SMILES is read from it. I, II: the chains in the order shown. X1 = O=C(CCc1cn(CCOCCOCCOCCC(=O)[*:2])nn1)[*:1]; isoGln = NC(=O)[C@H](CCC(=O)[*:2])N[*:1]

How the values were obtained:
LLC-1 = test: MTT cell viability, LLC-1 cells; assay type: cell-based; details: LLC-1 murine lung cancer, p53 WT
Procedure: (§1) Cell viability assay in several human cancer cell lines (See Tables 1 to 10). Cell lines were cultured in RPMI 1640 (or recommended medium when indicated) medium supplemented with 10% fetal calf serum, penicillin (50 IU/mL) and streptomycin ([…]) at 37° C. in 5% CO2. Cell viability studies was carried using the MTT (3-(4,5-dimethylthiazol-2-yl)-2,5-diphenyltetrazolium bromide) assay as previously described (31). Briefly, ≈2×10^3 CRC cells were be seeded in 96-well microtiter plates in 100 μL RPMI 1640 in the presence of 10% calf serum. […] After 1 h, 210 μL/well of full complemented media was added, the cells were grown for 48 h and then treated with 20 μL of a solution of MTT (5 mg/mL) for 2 h. The medium was discarded and DMSO ([…]) was added to each well and incubated with gentle shaking for 20 min at room temperature. The absorbance at 595 nm of the solution is analyzed using a Tecan Genios Multifunctional Microplate Reader (Tecan System Inc) and the background at 670 nm subtracted. RNA-Seq analysis was performed using state-of-the-art bioinformatics tools. Briefly, raw RNA-Seq reads were mapped to human genome (hg38) using STAR aligner (v2.7.3a). Gencode Release 36 reference was used for annotation. Transcript and gene expression levels were quantified using the IsoEM (37) with default parameters. […]
(§2) Cell viability was evaluated using the MTT assay as described above.

MOLM-13 = test: MTT cell viability, MOLM-13 cells; assay type: cell-based, human; details: MOLM-13 adult acute myeloid leukemia, p53 WT
Procedure: (§3) Cell viability assay in several human cancer cell lines (See Tables 1 to 10). Cell lines were cultured in RPMI 1640 (or recommended medium when indicated) medium supplemented with 10% fetal calf serum, penicillin (50 IU/mL) and streptomycin ([…]) at 37° C. in 5% CO2. Cell viability studies was carried using the MTT (3-(4,5-dimethylthiazol-2-yl)-2,5-diphenyltetrazolium bromide) assay as previously described (31). Briefly, ≈2×10^3 CRC cells were be seeded in 96-well microtiter plates in 100 μL RPMI 1640 in the presence of 10% calf serum. […] After 1 h, 210 μL/well of full complemented media was added, the cells were grown for 48 h and then treated with 20 μL of a solution of MTT (5 mg/mL) for 2 h. The medium was discarded and DMSO ([…]) was added to each well and incubated with gentle shaking for 20 min at room temperature. The absorbance at 595 nm of the solution is analyzed using a Tecan Genios Multifunctional Microplate Reader (Tecan System Inc) and the background at 670 nm subtracted. RNA-Seq analysis was performed using state-of-the-art bioinformatics tools. Briefly, raw RNA-Seq reads were mapped to human genome (hg38) using STAR aligner (v2.7.3a). Gencode Release 36 reference was used for annotation. Transcript and gene expression levels were quantified using the IsoEM (37) with default parameters. Counts per million (CPM) method is used for normalization. Differential expression was done using DESeq2 with default parameters. Genes involved in different biological pathways (human) were searched from Geneontology (http://geneontology.org/). Bioinformatics results can be validated by using Partek Flow (v10.0.21.0912), a bioinformatics pipeline developed by Zymo Research (https://www.zymoresearch.com/).
as §2

Jurkat = test: MTT cell viability, Jurkat cells; assay type: cell-based, human; details: Jurkat childhood T acute lymphoblastic leukemia, p53 Mutant
Procedure: as §3, §2

NCl-A549 = test: MTT cell viability, NCl-A549 cells; assay type: cell-based, human; details: NCl-A549 lung adenocarcinoma, p53 WT
Procedure: as §3, §2

4T1 = test: MTT cell viability, 4T1 cells; assay type: cell-based; details: 4T1 murine breast cancer, p53 WT
Procedure: as §1, §2

NCl-H1975 = test: MTT cell viability, NCl-H1975 cells; assay type: cell-based, human; details: NCl-H1975 lung adenocarcinoma, p53 Mutant
Procedure: as §1, §2

NCl-H2347 = test: MTT cell viability, NCl-H2347 cells; assay type: cell-based, human; details: NCl-H2347 lung adenocarcinoma, p53 Mutant
Procedure: as §1, §2

DLD-1 = test: MTT cell viability, DLD-1 cells; assay type: cell-based, human; details: DLD-1 colon adenocarcinoma, p53 Mutant
Procedure: as §1, §2

HCT116^+/+ = test: MTT cell viability, HCT116 p53 wild-type cells; assay type: cell-based, human; details: HCT116^+/+ colon carcinoma, p53 WT; MTT; read-out: EC50
Procedure: as §3, §2

[1] = system: p53, FOXO3a, RUNX3, ATF3, DYRK2 and HIPK2 in HCT116 cell lines; test: Stabilization of Hdm2/HdmX E3 ligase substrates in HCT116 cell lines; assay type: cell-based, human; details: HCT116 cell lines with p53-wt and -null phenotype; listed as MCo-52-2-cTAT
Procedure: Stabilization of p53 could be observed just 8 h after treating the cells with the bioactive cyclotide (FIG. 5B), likely indicating the cyclotide crosses the cellular membrane into the cytosol through an endocytic mechanism as previously described for this type of microproteins (30, 31). […] These transcription factors (ATF3, FOXO3a and RUNX3) and kinases (DYRK2 and HIPK2) have been described to be regulated by the E3 ligase activity of Hdm2/HdmX (6). […] In both cases the peptide was able to inhibit tumor growth by 60% (HCT116-nude mice) and 80% (CT26-Balb/c mice) (FIG. 7).

[2] = biological target: T1, E3 ligase activity of Hdm2 (Homo sapiens, UniProt Q00987); test: E3 ligase activity of Hdm2 on p53, commercial kit; assay type: biochemical; details: in vitro, Hdm2 around 1 μM (FIG. 4B)
T1 construct: purchased
T1 sequence (Q00987 whole entry): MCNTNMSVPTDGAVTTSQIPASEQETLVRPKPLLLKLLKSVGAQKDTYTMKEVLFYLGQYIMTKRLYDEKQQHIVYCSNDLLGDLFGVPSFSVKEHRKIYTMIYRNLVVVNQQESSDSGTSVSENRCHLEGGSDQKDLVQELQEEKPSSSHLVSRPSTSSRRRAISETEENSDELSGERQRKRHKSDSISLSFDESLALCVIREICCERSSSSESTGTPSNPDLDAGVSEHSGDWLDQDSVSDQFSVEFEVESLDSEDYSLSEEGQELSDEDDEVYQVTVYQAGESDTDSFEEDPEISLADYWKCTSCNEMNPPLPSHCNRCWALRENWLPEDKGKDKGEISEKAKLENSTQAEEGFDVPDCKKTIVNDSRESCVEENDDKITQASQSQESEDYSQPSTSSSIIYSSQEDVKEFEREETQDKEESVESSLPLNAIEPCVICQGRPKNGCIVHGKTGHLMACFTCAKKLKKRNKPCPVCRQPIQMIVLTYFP
Procedure: FIGS. 4A-4B: Structure and E3 ligase inhibitory activity of cyclotide MCo-52-2. (FIG. 4A) Structures of the heterodimer formed by the RINGs domain of Hdm2 and HdmX and the complex of cyclotide MCo-52-2 with the RING domain of HdmX, the interacting residues in loops 1 and 5 are shown in light grey (on the left). (FIG. 4B) Inhibitory E3 ligase activity of cyclotide of Hdm2 on p53. The concentration of Hdm2 in the assay was around 1 μM as provided in the commercial kit.
Cyclotide MCo-52-2-cTAT efficiently antagonizes the RING-mediated dimerization of Hdm2/HdmX inhibiting its E3 ligase activity. Applicant developed a cell-based screening of genetically-encoded libraries of cyclotides for Hdm2/HdmX antagonists that has allowed the selection of a bioactive cyclotide, MCo-52-2-cTAT. […] This cyclotide can be efficiently produced by chemical synthesis using solid-phase peptide synthesis (SPPS) or heterologous expression systems (28). Heterologous expression of cyclotides allows introduction of NMR-active isotopes, such as ^13C and ^15N to study the structure of this cyclotide and how interacts with the RING-domains of Hdm2 and HdmX. Using this approach, Applicant solved the structure of cyclotide MCo-52-2 complexed to the RING domain of HdmX in solution (FIG. 4A).

Compound | EC50 (LLC-1) [µM] | EC50 (MOLM-13) [µM] | EC50 (Jurkat) [µM] | EC50 (NCl-A549) [µM] | EC50 (4T1) [µM] | EC50 (NCl-H1975) [µM] | EC50 (NCl-H2347) [µM] | EC50 (DLD-1) [µM] | EC50 (HCT116^+/+) [µM] | Stabilization of transcription factors and kinases [1] | Inhibition of the E3 ligase activity of Hdm2 [2]
COc1ccc(C2=N[C@@H](c3ccc(Cl)cc3)[C@@H](c3ccc(Cl)cc3)N2C(=O)N2CCNC(=O)C2)c(OC(C)C)c1 [Nutlin 3A] | 9.4 ± 1.2 | 1.4 ± 0.1 | 45.2 ± 2.4 | 6.6 ± 0.7 | 28.5 ± 8.6 | > 100 | 25.3 ± 5.5 | > 100 |  |  | 
N=C(N)NCCC[C@@H]1NC(=O)[C@@H](CCCNC(=N)N)NC(=O)[C@H](CCCCN)NC(=O)[C@@H](N)CCCCNC(=O)CC[C@@H](C(=O)O)NC(=O)[C@@H](CCCNC(=N)N)NC(=O)[C@H](CCCNC(=N)N)NC(=O)[C@@H](CCCCN)NC(=O)[C@H](CCCCN)NC(=O)[C@@H](CCCNC(=N)N)NC(=O)CNC(=O)[C@@H](CCCNC(=N)N)NC1=O [cTAT] (H-KK[dR]R[dR]G[dR]K[dK]R[dR]E-OH; lactam 1-12; N-terminus and C-terminus assumed) | > 100 | > 100 | > 100 | > 100 | > 100 | > 100 | > 100 | > 100 | > 100 |  | 
I: cyclo(ACICRHDSYCGSGSDGGVCPNLYLLCRRDKDCPG) / II: KK[dR]R[dR]G[dR]K[dK]R[dR][isoGln] (disulfide I:2-I:19, I:4-I:26, I:10-I:32; linker I:30-II:N via X1; lactam II:1-II:C) [Cyclotide 52-2-cTAT] |  |  |  |  |  |  |  |  | 10.9 ± 1.3 | stabilize ATF3, FOXO3a, RUNX3, DYRK2 and HIPK2; also recorded: stabilizes transcription factors p53, FOXO3a, RUNX3, ATF3, and kinases DYRK2 and HIPK2 | specifically inhibit the E3 ligase activity of Hdm2 in vitro in a dose-dependent fashion
